Assay results as given in patent US4871774A, “Medical treatment” (The Boots Company PLC, priority 1987, dated 1989).
Several values for one entry are separate records, joined by “and”; a condition that tells them apart may be missing. Equal values may be shown once.

How the values were obtained:
[1] = test system: uptake of radiolabelled dopamine into rat striatal synaptosomes; assay: Inhibition of dopamine uptake in vitro by plasma from drug treated rats (3H-dopamine, rat striatal synaptosomes); assay type: biochemical, rat (CD, Sprague-Dawley); details: for % Inhibition of dopamine uptake in Individual Rats: hydrochloride monohydrate; for % Inhibition of dopamine uptake, Mean (±SEM): mean of 4 rats
Protocol: (3) Inhibition of dopamine uptake in vitro by plasma from drug treated rats
To obtain the synaptosomes, untreated male CD rats (Sprague-Dawley 200-250 g; Charles River) were killed by cervical dislocation, the brains removed and the striata of two or three rats dissected out and placed in ice-cold saline. The pooled tissue was homogenised in 20 volumes of ice-cold 0.32M sucrose in a glass-teflon homogeniser with 0.35 mm clearance. The homogenate was spun at 1500×g for 10 minutes in a refrigerated (4° C.) Heraeus Christ minicentrifuge. The supernatant was transferred into a polypropylene sterilin tube and stored on ice for as short a time as possible prior to use in the radiolabelled dopamine uptake assay.
Control rats were orally administered distilled water. After one hour the rats were killed by CO2 inhalation overdose, the chest cavity opened and blood immediately removed from the heart and mixed with an anticoagulant solution.
The rat blood/anticoagulant mixture was spun at 5750×g for 20 minutes in a Heraeus Christ minicentrifuge at room temperature. The plasma was removed and kept at room temperature for as short a time as possible before analysis in the radiolabelled dopamine uptake assay. The fresh plasma samples from the rat study were initially maintained at 37° C. for 10-15 minutes before starting the assay. 300 μl of each plasma sample was added to six 5 ml polypropylene tubes already containing 50 μl of saline at room temperature. Four of these tubes were incubated at 37° C. to assess active radiolabelled dopamine uptake. The other two tubes were immediately cooled to c.3° C. and maintained at this temperature to account for passive radiolabelled dopamine uptake.
(a) Active uptake of radiolabelled dopamine
To each tube at 37° C. was added 100 μl of fresh striatal synaptosomes, prepared as above. These tubes were then agitated in the water bath at 37° C. for 5 minutes prior to the addition of 50 μl ice-cold ^3 H-dopamine solution (final concentration 1×10^-7 M) (Amersham International). The reaction was stopped after a further 5 minutes of agitation and incubation at 37° C. by removing the tubes from the water bath and immediately adding 4 ml of ice-cold saline. The contents of the tube were then rapidly filtered over Whatman glass fibre (GF/F) filters supported on a Millipore 1225 manifold linked to an Edwards 2-stage vacuum pump. The tubes were rinsed with 2×4 ml of ice-cold saline and this was also rapidly filtered. Finally, each manifold well was washed with 4 ml of ice-cold saline.
(b) Passive uptake of radiolabelled dopamine
To the two tubes maintained at c.3° C. was added 100 μl of fresh striatal synaptosomes followed by 50 μl of ice-cold ^3 H-dopamine solution (final concentration 1×10^-7 M). The "reaction" in these tubes was terminated by the addition of 4 ml ice-cold saline and the samples were then rapidly filtered and washed as described in (a) above.
All filters were placed into glass vials and 10 ml of Packard ES-299 scintillation fluid added. Filters were allowed to solubilise for at least 1 hour before the radioactivity accumulated was assayed by liquid scintillation counting.
(c) Calculation of percentage inhibition of ^3 H-dopamine uptake
The amount of passive uptake of ^3 H-dopamine at c.3° C. (measured in cpm) was subtracted from the amount of active ^3 H-dopamine uptake at 37° C. (measured in cpm) to derive net ^3 H-dopamine uptake. The resulting value was then expressed as a percentage (X) of the net ^3 H-dopamine uptake recorded for control plasma. The latter plasma samples were obtained from distilled water-treated control rats. The percentage inhibition value (X) was calculated using the following formula: [formula]
Mean [±1 standard error of the mean (SEM)] percentage inhibition was then determined for each dose.

[2] = test system: dopamine reuptake; unilateral nigrostriatal lesioned rats; assay: Ipsilateral circling behaviour of unilateral nigrostriatal (6-OHDA) lesioned rats; assay type: in vivo, rat (CD); details: 30 mg/kg oral
Excerpt: The two tracts of the nigrostriatal dopamine system are independent and are located on either side of the midline of the brain. When one tract is destroyed using the specific neurotoxin, 6-hydroxydopamine (6-OHDA), rats will display characteristic circling behaviour after injection of dopaminergic drugs. The direction of rotation, however, is dependent on the stimulus employed. Drugs which inhibit dopamine reuptake can only function on the unlesioned side of the brain and induce circling towards the lesion site (known as ipsilateral circling.)
Male CD rats (250-300 g: Charles River) were anaesthetised with `Equithesin` type anaesthetic (3.2 ml/kg i.p.) and secured in a stereotaxic frame (David Kopf Small Animal Stereotaxic Instrument DKI 900). After shaving the area, a saggital incision of 1.5-2 cm was made and skin flaps dissected from the skull. A small hole was made in the skull, using a No. 6 dental burr, to allow the tip of a 30 s.w.g. stainless steel cannula to be inserted to the left substantia nigra. This was located by using the following co-ordinates, using skull landmark bregma as the zero reference point; rostral-caudal -2.8; medial-lateral +2.0; dorsal-ventral -8.0 from the surface of the dura, all co-ordinates measured in millimetres. This system of co-ordinates is a modification of the de Groot system as described by Pellegrino et al (A stereotaxic atlas of the rat brain, 2nd Edition, Plenum Press 1979). 6-Hydroxydopamine HBr (2 μg/μl, as base: Sigma Chemical Co.) was injected into the left substantia nigra at 1 μl/min; a total of 8 μg was administered over a period of 4 minutes using an infusion pump (Braun `Perfusor` ED2). After removal of the cannula, the skin flaps were joined with a single everted suture and the animal allowed to recover.
After 21 days, the circling behaviour of the rats was examined. They were placed, individually, in circular plastic arenas (30 cm diameter×12 cm high) for 1 hour, with no access to food or water during this period. […] One `turn` consisted of rotation through 360° in either direction. As rats were always lesioned on the left side of the brain, anticlockwise turns were ipsilateral.
Control values were determined for all rats by observing their spontaneous circling behaviour in the arenas without prior dosing. The mean turns per minute was always less than 1.
The rats were challenged with an intraperitoneal dose of methamphetamine (2 mg/kg) and immediately placed in the arenas. In these experiments circling behaviour was monitored during two periods, 0-1 h and 4-5 h after dosing. Rats giving a mean of more than 5 ipsilateral turns per minute during the first hour in response to methamphetamine were used in subsequent tests. Following selection, the rats were used in groups of 5 or more rats to test the drug under investigation.

[3] = plasma 1 h after 100 mg/kg oral

SMILES: CC(C)CC(N(C)C)C1(c2ccc(Cl)cc2)CCC1.Cl.O (stereo not shown) [N,N-dimethyl-1-[1-(4-chlorophenyl)cyclobutyl]-3-methylbutylamine hydrochloride monohydrate]
- % Inhibition of dopamine uptake in Individual Rats ([1]; plasma 1 h after 10 mg/kg oral): 33% and 23% and 13% and 17%
- % Inhibition of dopamine uptake, Mean (±SEM) ([1]; plasma 1 h after 10 mg/kg oral): 22.8 ± 5.5%
- % Inhibition of dopamine uptake in Individual Rats ([1]; plasma 1 h after 30 mg/kg oral): 54% and 35% and 49% and 42%
- % Inhibition of dopamine uptake, Mean (±SEM) ([1]; plasma 1 h after 30 mg/kg oral): 45.0 ± 4.1%
- % Inhibition of dopamine uptake in Individual Rats [1, 3]: 53% and 59% and 67% and 55%
- % Inhibition of dopamine uptake, Mean (±SEM) [1, 3]: 58.5 ± 3.1%
- inhibition of radiolabelled dopamine uptake (in words) ([1]; plasma from rats, 10, 30 or 100 mg/kg oral): dose-dependent inhibition of radiolabelled dopamine uptake
- duration of action as an inhibitor of dopamine reuptake (in words) [2]: long lasting action as an inhibitor of dopamine reuptake
- ipsilateral turns/min (Mean ± SEM) ([2]; 0-1 hrs after dosing): 3.0 ± 0.6 turns/min
- ipsilateral turns/min (Mean ± SEM) ([2]; 4-5 hrs after dosing): 6.7 ± 1.4 turns/min
- ipsilateral turns/min (Mean ± SEM) ([2]; 8-9 hrs after dosing): 8.6 ± 1.8 turns/min
- ipsilateral turns/min (Mean ± SEM) ([2]; 24-25 hrs after dosing): 6.2 ± 1.7 turns/min
- ipsilateral turns/min (Mean ± SEM) ([2]; 48-49 hrs after dosing): 1.7 ± 0.5 turns/min
